Where only a bound is given, the exact number is not on record here.

Sequence of SIK2 (Q9H0K1 whole entry, species assumed): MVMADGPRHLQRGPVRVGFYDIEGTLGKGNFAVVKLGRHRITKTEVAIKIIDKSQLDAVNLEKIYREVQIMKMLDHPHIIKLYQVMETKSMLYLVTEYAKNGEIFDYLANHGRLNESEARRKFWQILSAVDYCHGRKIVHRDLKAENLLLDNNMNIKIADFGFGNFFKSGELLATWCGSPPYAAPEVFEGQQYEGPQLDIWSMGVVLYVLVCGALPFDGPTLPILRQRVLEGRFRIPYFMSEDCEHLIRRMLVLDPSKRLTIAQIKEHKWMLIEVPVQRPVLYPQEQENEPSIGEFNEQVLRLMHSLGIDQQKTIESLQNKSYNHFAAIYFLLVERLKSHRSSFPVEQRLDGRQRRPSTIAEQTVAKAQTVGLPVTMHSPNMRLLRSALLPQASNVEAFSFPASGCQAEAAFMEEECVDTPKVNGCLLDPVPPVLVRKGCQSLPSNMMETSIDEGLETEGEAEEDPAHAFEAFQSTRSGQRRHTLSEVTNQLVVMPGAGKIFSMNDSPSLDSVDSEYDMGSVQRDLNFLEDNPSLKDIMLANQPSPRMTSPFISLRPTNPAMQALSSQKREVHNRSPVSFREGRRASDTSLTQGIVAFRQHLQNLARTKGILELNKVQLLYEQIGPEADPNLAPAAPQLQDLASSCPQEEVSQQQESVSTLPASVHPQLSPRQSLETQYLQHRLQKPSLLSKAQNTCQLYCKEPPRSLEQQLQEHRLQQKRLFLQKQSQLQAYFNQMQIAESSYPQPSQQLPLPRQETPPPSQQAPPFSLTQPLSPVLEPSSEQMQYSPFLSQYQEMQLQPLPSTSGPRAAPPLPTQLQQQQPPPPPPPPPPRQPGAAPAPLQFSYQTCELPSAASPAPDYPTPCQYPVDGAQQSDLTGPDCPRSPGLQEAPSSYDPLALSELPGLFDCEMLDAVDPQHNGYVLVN

For the assay, the target named is SIK2 (Homo sapiens (Human), UniProt Q9H0K1). In words: SIK2 Enzymatic Assay Version 2 (High ATP). The conditions noted are these: 3 mM ATP and 200 μM HDAC5tide final, ADP-Glo Max luminescence. The format is biochemical. Summed up:
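Luminescent ADP-Glo Max read-out: depletion reagent 2 h, then detection reagent 1 h. Before the reaction, compounds were incubated 30 min with enzyme added at 6 nM (twice final concentration), with all steps at room temperature.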
For orientation: In ADP-Glo the light output rises with the ADP produced.
By IC50 is commonly meant the point on the concentration scale where inhibition reaches its midpoint. Read a high IC50 as lower potency. Compound `CN1CC[C@@H](COc2cnn(Cc3ccccc3)c2-c2ccn3nc(NC(=O)C4CC4)cc3c2)C1` [Example 491, N-[5-[2-benzyl-4-[[(3R)-1-methylpyrrolidin-3-yl]methoxy]pyrazol-3-yl]pyrazolo[1,5-a]pyridin-2-yl]cyclopropanecarboxamide] came in with an IC50 of over 50000 nM.

In turn, `Cc1cncc(Nc2cc3cc(-c4c(OC[C@H]5CCN5)cnn4C)ccn3n2)n1` [Example 45, 5-[4-[[(2R)-azetidin-2-yl]methoxy]-2-methyl-pyrazol-3-yl]-N-(6-methylpyrazin-2-yl)pyrazolo[1,5-a]pyridin-2-amine] registered an IC50 of 24.1 nM. In other words, the double-digit nanomolar range.

Take `CCN1CCC[C@@H]1COc1cnn(C)c1-c1ccn2nc(Nc3cc(C)nc(C)n3)cc2c1` [Example 289, N-(2,6-dimethylpyrimidin-4-yl)-5-[4-[[(2R)-1-ethylpyrrolidin-2-yl]methoxy]-2-methyl-pyrazol-3-yl]pyrazolo[1,5-a]pyridin-2-amine]: half-maximal inhibition (IC50) required 1.4 nM.

In turn, `CO[C@H]1CNC[C@H]1Oc1noc(C)c1-c1ccn2nc(Nc3cc(C)nc(C)n3)cc2c1` [Example 94, N-(2,6-dimethylpyrimidin-4-yl)-5-[3-[(3R,4S)-4-methoxypyrrolidin-3-yl]oxy-5-methyl-isoxazol-4-yl]pyrazolo[1,5-a]pyridin-2-amine] returned an IC50 of 10.3 nM. Against the preceding compound, the IC50 is about 7.4-fold higher.

`CNC(=O)c1cc(Nc2cc3cc(-c4c(OC[C@H]5CCN5C)cnn4C)ccn3n2)nc(C)n1` [Example 120, N,2-dimethyl-6-[[5-[2-methyl-4-[[(2R)-1-methylazetidin-2-yl]methoxy]pyrazol-3-yl]pyrazolo[1,5-a]pyridin-2-yl]amino]pyrimidine-4-carboxamide] showed an IC50 of 23.7 nM.

For `Cn1ncc(OC[C@@H](N)c2ccccc2)c1-c1ccn2nc(NC(=O)C3CC3)cc2c1` [Example 235, N-[5-[4-[(2S)-2-amino-2-phenyl-ethoxy]-2-methyl-pyrazol-3-yl]pyrazolo[1,5-a]pyridin-2-yl]cyclopropanecarboxamide], the IC50 was under 0.847 nM.

`Cn1ncc(O[C@@H]2CNC[C@H]2O)c1-c1ccn2nc(NC(=O)C3CC3)cc2c1` (single isomer, unassigned) [Example 414, (3*R,4*R)—N-[5-[4-(4-hydroxypyrrolidin-3-yl)oxy-2-methyl-pyrazol-3-yl]pyrazolo[1,5-a]pyridin-2-yl]cyclopropanecarboxamide]: the IC50 was found to be 98.7 nM.

Compound `CCN1CC[C@@H]1COc1cnn(C)c1-c1ccn2nc(Nc3ccnc(C(F)(F)F)n3)cc2c1` [Example 161, 5-[4-[[(2R)-1-ethylazetidin-2-yl]methoxy]-2-methyl-pyrazol-3-yl]-N-[2-(trifluoromethyl)pyrimidin-4-yl]pyrazolo[1,5-a]pyridin-2-amine] returned an IC50 of under 0.847 nM.

For `Cc1cncc(Nc2cc3cc(-c4c(CO[C@H]5CN(C)C[C@@H]5C)cnn4C)ccn3n2)n1` (stereo in doubt) [Example 374, Trans-*S, *R-5-[4-[(1,4-dimethylpyrrolidin-3-yl)oxymethyl]-2-methyl-pyrazol-3-yl]-N-(6-methylpyrazin-2-yl)pyrazolo[1,5-a]pyridin-2-amine], 17.3 nM corresponded to half-maximal inhibition (IC50). That is a double-digit nanomolar value.

Compound `Cn1ncc(OC[C@H]2CCN2C[C@H]2CCCO2)c1-c1ccn2nc(NC(=O)C3CC3)cc2c1` [Example 259, N-(5-(1-methyl-4-(((R)-1-(((R)-tetrahydrofuran-2-yl)methyl)azetidin-2-yl)methoxy)-1H-pyrazol-5-yl)pyrazolo[1,5-a]pyridin-2-yl)cyclopropanecarboxamide] showed an IC50 of 46.5 nM. Against the preceding compound, the IC50 is about 2.7-fold higher.

Compound `Cn1ncc(COC2CNC2)c1-c1ccn2nc(NC(=O)C3CC3)cc2c1` [Example 360, N-[5-[4-(azetidin-3-yloxymethyl)-2-methyl-pyrazol-3-yl]pyrazolo[1,5-a]pyridin-2-yl]cyclopropanecarboxamide] displayed an IC50 of 32.8 nM.

Turning to `CN1CC[C@H](Oc2cnn(C)c2-c2ccn3nc(Nc4ccncn4)cc3c2)C1` [Example 455, 5-[2-methyl-4-[(3S)-1-methylpyrrolidin-3-yl]oxy-pyrazol-3-yl]-N-pyrimidin-4-yl-pyrazolo[1,5-a]pyridin-2-amine], half-maximal inhibition (IC50) required 137 nM. This IC50 lies about 4.2-fold higher than the previous one.

These data come from patent US20240174662A1, “SMALL MOLECULE INHIBITORS OF SALT INDUCIBLE KINASES” (Janssen Biotech, Inc., priority 2021, published 2024).
